{
  "source": "paper PMC9490060",
  "about": "“Synthesis and evaluation of anticancer activity of quillaic acid derivatives: A cell cycle arrest and apoptosis inducer through NF-κB and MAPK pathways” (Frontiers in Chemistry, 2022)",
  "key": {"[1]": {"system": "L02 (human normal liver cells)", "assay": "Cytotoxicity against normal cell line L02", "type": "cell-based", "text": "The lack of selectivity between normal and cancer cells is one of the main limitations of antitumor drugs ([Dy and Adjei, 2013]). Therefore, we evaluated the cytotoxicity of compounds B2, and E in normal cell lines L02 (human normal liver cells) to determine the selectivity index (ratio of cytotoxicity in L02 cells compared to that in cancer cells). […] Therefore, this compound was chosen for further biological studies.\nThe propidium iodide (PI) and Annexin V-FITC apoptosis detection kit were purchased from Invitrogen (Eugene, OR, United States). 3-(4,5-Dimethylthiazol-2-yl)-2,5-diphenyl-2H-tetrazolium bromide (MTT) was purchased from Sigma-Aldrich Co. (St. Louis, MO, United States). All human cell lines were used in this study, colorectal cancer cell HCT116, colorectal cancer cell SW620, breast cancer cell MCF-7, liver hepatocellular carcinoma cell BEL7402, liver hepatocellular carcinoma HepG2 and normal liver cell L02 were initially purchased from American Type Culture Collection (ATCC, Manassas, VA, United States). RPMI-1640 media, Dulbecco’s modified Eagle’s medium (DMEM), and foetal bovine serum (FBS) were provided from Gibco Company (Grand Island, NY, United States). Cell line MCF-7 and HepG2 were cultivated in DMEM containing 10% (v/v) heat-inactivated FBS, 100 units/ml penicillin and […] streptomycin (Grand Island, NY, United States). Cell lines HCT116, BEL7402, SW620, and L02 were cultivated in RPMI 1640 medium containing 10% (v/v) heat-inactivated FBS, 100 units/ml penicillin, and […] streptomycin. The cells were incubated at 37°C under a 5% CO2 and 90% relative humidity (RH) atmosphere.\nStock solutions were prepared by diluting target compounds in DMSO at concentrations (1.25, 2.5, 5, and 10 mM). The stock solution was then diluted (1.25, 2.5, 5, and 10 μM) with culture medium, and the concentration of DMSO was controlled not to exceed 0.1%.\nPlace the cells in a 96-well plate at an appropriate density to ensure exponential growth (1 × 10^4–1.2×10^4 cells per well) throughout the experiment, and then allow the cells to adhere for 24 h. The cells were then treated with continuous concentrations of each compound (1.25, 2.5, 5, and 10 μM) for 48 h. After 48 h of incubation, 15 μl of MTT solution was added to each well, and the final concentration was 2 mg/ml. Then incubate for another 4 h. After incubation, remove the MTT solution and add […] of DMSO to each well for staining. Shake vigorously for 10 min at room temperature to ensure complete dissolution. The optical density (OD) was read on a microplate reader (ELx 800, BioTek, Highland Park, Winooski, VT, United States) with a wavelength of 492 nm, and then the data was analyzed."}, "HCT116 cells [2]": {"system": "HCT116 cells", "assay": "Colony formation assay", "type": "cell-based, human", "conditions": "HCT116, 2.5, 5, 10 μM, 7 days", "procedure": "The colony-forming cell assay was used to determine the ability of cells to proliferate and differentiate into colonies and thereby to investigate the anti-proliferative efficacy of compound E ([Lei et al., 2015]).\nFIGURE 3 Colony formation of HCT116 cells inhibited by compound E. (A) HCT116 cells were incubated with varying concentrations of E (0, 2.5, 5, 10 μM) and stained with crystal violet. (B) The micrographic differences between the colonies. Images were taken of stained single colonies observed under a microscope.\nExponentially growing HCT116 cells (600 cells per well) were plated on 6-well plates with Roswell Park Memorial Institute (RPMI) 1,640 medium containing 10% fetal bovine serum (FBS). After incubating for 12 h, replace with fresh medium. Then, the cells were treated with different concentrations of compound E (2.5, 5 and 10 μM) dissolved in DMSO. Some cells only use DMSO as a negative control. Then incubate for another 7 days. Finally, the cells were fixed with 95% ethanol for 25 min, stained with 0.1% crystal violet for 15 min at room temperature, and then washed with PBS until the […] were completely removed."}, "HCT116 cells [3]": {"system": "HCT116 cells", "assay": "H&E staining of morphological changes", "type": "cell-based, human", "conditions": "HCT116, 2.5, 5, 10 μM, 24 h", "procedure": "Induction of apoptosis is the mechanism of action of many anti-proliferative drugs. When cells undergo apoptosis, they generally also undergo morphological changes ([Liu et al., 2009]). Therefore, we used H&E staining to assess morphological changes in the cells.\nFIGURE 5 Cell morphological alterations and nuclear changes associated with HCT116 cells after incubation with varying concentrations E (0, 2.5, 5, 10 μM) for 24 h were assessed by staining with H&E and visualized by microscopy."}, "JNK": {"system": "JNK", "assay": "Western blot, MAPK signaling pathway: JNK", "type": "cell-based, human", "conditions": "HCT116, 10 μM, 24 h", "text": "Extracellular signal-regulated kinases are the most closely related MAPK. MAPK, a family of serine/threonine protein kinases, is also an important transmitter of signaling from the cell surface to the nucleus, and it is involved in the regulation of many physiological processes, including apoptosis ([Bian et al., 2021]). The MAPK pathway has been implicated in regulating tumor angiogenesis, proliferation, metastasis and invasion ([Ko et al., 2017]). MAPK family is mainly composed of ERK, p38 and JNK subfamily.\nFIGURE 9 Effect of compound E on […] in HCT116 cells. Cells were pretreated with the various concentrations of compound E (2.5, 5 and 10 μM) for 24 h. The expression of phospho-ERK, ERK, phospho-JNK, JNK, phospho-p38, p38 were analyzed by Western blot. ***p < 0.001, **p < 0.01, *p < 0.05 vs. control group. The error bars represent the mean ± SD for three independent experiments.\nHCT116 cells were cultured with different concentrations of compound E for 24 h. Then, the floating cells were collected and washed twice with ice-cold PBS. Add cold RIPA buffer. After the cells were lysed on ice for 20 min, the lysate was centrifuged at 12,000 rpm for 15 min at 4°C. The BCA method determines the protein concentration. […] The protein is detected by electrochemiluminescence (Bio-Rad, CA, United State)."}},
  "note": "pIC50: −log10 of the molar value.",
  "data": [
    {"smiles": "CC1(C)CC[C@]2(C(=O)OCCn3nnnc3-c3ccccc3)[C@H](O)C[C@]3(C)C(=CC[C@@H]4[C@@]5(C)CC[C@H](O)[C@@](C)(C=O)[C@@H]5CC[C@]43C)[C@@H]2C1", "note": "[Compound E, 2-(5-phenyl-1H-tetrazol-1-yl)ethyl (4aR,5R,6aS,6bR,8aR,9S,10S,12aR,12bR,14bS)-9-formyl-5,10-dihydroxy-2,2,6a,6b,9,12a-hexamethyl-1,3,4,5,6,6a,6b,7,8,8a,9,10,11,12,12a,12b,13,14b-octadecahydropicene-4a (2H)-carboxylate]", "values": [
      {"measurement": "pIC50", "setting": "[1]; Homo sapiens, normal cell line L02", "value": "< 5.00"},
      {"measurement": "Selectivity index BEL7402", "setting": "[1]; IC50 on normal cells (L02)/IC50 on tumour cells (BEL7402)", "value": "> 1.45"},
      {"measurement": "Selectivity index HCT116", "setting": "[1]; IC50 on normal cells (L02)/IC50 on tumour cells (HCT116)", "value": "> 4.06"},
      {"measurement": "Selectivity index HepG2", "setting": "[1]; IC50 on normal cells (L02)/IC50 on tumour cells (HepG2)", "value": "> 1.12"},
      {"measurement": "Selectivity index SW620", "setting": "[1]; IC50 on normal cells (L02)/IC50 on tumour cells (SW620)", "value": "> 2.13"},
      {"measurement": "colony formation (number and size of colonies)", "setting": "HCT116 cells [2]", "value": "significantly decreased the number and size of colonies in a concentration-dependent manner"},
      {"measurement": "morphological changes (H&E staining)", "setting": "HCT116 cells [3]", "value": "significant apoptotic morphological changes"},
      {"measurement": "phosphorylation level of JNK", "setting": "JNK", "value": "down-regulated"},
      {"measurement": "melting point", "value": "196 to 198", "unit": "°C"}
    ]}
  ]
}
